Measured values taken from US9517200B2, “Methods of delivering pharmaceutical agents” (Massachusetts Eye and Ear Infirmary, priority 2011, dated 2016).

System: 6-hydroxydopamine (6-OHDA) injury Parkinson's Disease mouse model
Test: Apomorphine-induced rotational behavior in unilateral striatal 6-OHDA injury mice
Type: in vivo
Conditions: intraperitoneal injection, 300 μL, 0.065 mg/mL, two weeks post-injury
Description: The details of these experiments are described below.
The mice underwent unilateral striatal 6-hydroxydopamine (6-OHDA) injection (3.2 μg/μL, 0.5 μL/min) according to Francardo et al. (Neurobiol. Dis. 42:327-340, 2011). […] The placement of a SEM graft over the skull of the mice was performed as described above. The duration of rotational behavior was determined in the treated mice.
The position of the mice was recorded by a camera (while they move freely in an arena). The number of contralateral rotations per minute was quantified using a custom analysis program written in Matlab and C++. Statistical analyses were performed using a Student's t-test to compare results between treatment groups (Stata v6.0).

With `CN1CCc2cccc3c2[C@H]1Cc1ccc(O)c(O)c1-3` [apomorphine] the “rotational behavior (contralateral turns per minute)” value was “increased”.
